Experiments:
NR4A1 [1] = molecular target: T1, NR4A1 (Homo sapiens, UniProt P22736); assay: Luciferase assay, NR4A1/NBRE-luc in ESECT-7 cells; format: cell-based; conditions: ESECT-7 cells transfected with NR4A1/NBRE-luc; 18 hr treatment; FIG. 2A
T1 construct: expressed in transfected cells; host or cells: ESECT-7 patient-derived endometriotic cells
Procedure: (§1) Luciferase assay: ESECT-7 and ESECT-40 cells were plated on 12-well plates in DMEM/F12 supplemented with 2.5% charcoal-stripped FBS. After overnight attachment and growth, various amounts of DNA [i.e., UASx5-Luc (500 ng), GAL4-NR4A1 (50 ng), NBREx3-Luc (800 ng), NurREx3-Luc (800 ng) and Flag-NR4A1 (80 ng)] were co-transfected into each well using Lipofectamine 2000 reagent (Invitrogen, Carlsbad, CA) according to the manufacturer's protocol. After 6 hr of transfection, cells were treated with plating medium (as above) containing either solvent (DMSO) or indicated concentrations of the compound for 18 hr. Cells were then lysed and cell extracts were used for chemiluminescence quantification of luciferase activity. Luciferase activity values were normalized against corresponding protein concentration values determined by Bradford assay. Both GAL4- and Flag-NR4A1 constructs contain full-length NR4A1 coding sequence and all the plasmids used in this study were previously described.

GAL4-NR4A1 = molecular target: T2, GAL4-NR4A1 (Homo sapiens, UniProt P22736); assay: Luciferase assay, GAL4-NR4A1 chimera/UAS-luc in ESECT-7 cells; format: cell-based; conditions: ESECT-7 cells transfected with GAL4-NR4A1 chimera/UAS-luc; 18 hr treatment; FIG. 2A
T2 construct: GAL4 (fusion partner); expressed in transfected cells; host or cells: ESECT-7 patient-derived endometriotic cells
T2 sequence (P22736 with tags, fused parts or gaps): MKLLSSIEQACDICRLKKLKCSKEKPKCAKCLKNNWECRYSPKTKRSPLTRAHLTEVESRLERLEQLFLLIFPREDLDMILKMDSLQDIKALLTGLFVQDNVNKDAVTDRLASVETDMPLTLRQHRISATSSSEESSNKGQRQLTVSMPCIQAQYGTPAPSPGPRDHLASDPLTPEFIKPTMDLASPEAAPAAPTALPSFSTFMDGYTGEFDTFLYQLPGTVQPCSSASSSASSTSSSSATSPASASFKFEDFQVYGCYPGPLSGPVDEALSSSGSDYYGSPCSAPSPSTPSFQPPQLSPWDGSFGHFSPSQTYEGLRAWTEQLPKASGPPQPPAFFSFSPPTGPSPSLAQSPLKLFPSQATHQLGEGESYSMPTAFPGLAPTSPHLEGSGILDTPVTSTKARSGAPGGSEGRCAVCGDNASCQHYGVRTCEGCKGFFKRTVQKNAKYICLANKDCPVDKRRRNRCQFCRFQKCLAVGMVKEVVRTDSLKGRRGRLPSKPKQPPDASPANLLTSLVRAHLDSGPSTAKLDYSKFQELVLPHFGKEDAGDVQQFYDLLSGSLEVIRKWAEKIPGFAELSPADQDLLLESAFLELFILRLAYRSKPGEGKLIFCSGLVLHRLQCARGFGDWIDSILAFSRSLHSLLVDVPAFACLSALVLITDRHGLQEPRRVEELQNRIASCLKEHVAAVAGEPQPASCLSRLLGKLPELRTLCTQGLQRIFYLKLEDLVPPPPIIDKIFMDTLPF
Procedure: as §1

ESECT-7 cells [2] = assay: Quantitative real-time PCR of fibrosis markers, ESECT-7; format: cell-based, human; conditions: 24 hours, 20-25 μM DIM-C-pPhOH, 5-10 μM DIM-C-pPhOH-3-Cl-5-OCH3, vs DMSO control, FIG. 5C
Procedure: Quantitative real-time PCR: Total RNA was isolated from cultured cells according to the manufacturer's instructions (Zymo Research, Irvine, CA). The concentration and purity of the RNA samples were determined using a nanodrop spectrophotometer. Total RNA was reverse transcribed using iTaq Universal SYBR Green One-Step Kit (Thermo Fisher Scientific, Grand Island, NY) using the manufacturer's protocol with the CFX384 real-time PCR System (Bio-Rad). The comparative cycle threshold method was used for relative quantitation of samples. Values for each gene were normalized to expression levels of TATA-binding protein. The sequences of the primers used for real-time PCR included the following: α-SMA, 5′-GGCCGAGATCTCACTGACTAC-3′ (sense, SEQ ID NO. 13) and 5′-TTC ATG GAT GCC AGC AGA-3′ (antisense, SEQ ID NO. 14); COL1A1, 5′-CAG CCG CTT CAC CTA CAG C-3′ (sense, SEQ ID NO. 15) and 5′-TTTTGTATTCAATCAGTGTCTTGCC-3′ (antisense, SEQ ID NO. 16); CTGF, 5′-TTGGCCCAGACCCAACTATG-3′(sense, SEQ ID NO. 17) and 5′-CAGGAGGCGTTGTCATTGGT-3′ (antisense, SEQ ID NO. 18); FN, 5′-GGG AGC CTC GAA GAG C-3′ (sense 19) and 5′-AACAAGTACAAACCAACGCA-3′ (antisense, SEQ ID NO. 20) and TATA-binding protein, 5′-GATCAGAACAACAGCCTGCC-3′ (sense, SEQ ID NO. 21) and 5′-TTCTGAATAGGCTGTGGGGT-3′ […].

ESECT-7 cells [3] = assay: Annexin V staining, ESECT-7; format: cell-based, human; conditions: 10 μM DIM-C-pPhOH-3-Cl-5-OCH3, 25 μM DIM-C-pPhOH, FIG. 3A
Procedure: (§2) Annexin V staining: ESECT-7 and ESECT-40 cells were seeded in Nunc chambered cover glass followed by various drug treatments. The cells were then washed with ice-cold PBS, and 5 μL Alexa Fluor® 488 Annexin V with 100 μg/mL PI (as per the manufacturer's instructions) were added to the cells and incubated for 15 min, and the cells were observed using a Zeiss confocal fluorescence microscope.

NR4A1 [4] = molecular target: T3, NR4A1 (Mus musculus, UniProt P12813); conditions: C2C12 muscle cells; cited from earlier work
T3 construct: endogenous in cells; host or cells: C2C12 muscle cells
T3 sequence (P12813 whole entry): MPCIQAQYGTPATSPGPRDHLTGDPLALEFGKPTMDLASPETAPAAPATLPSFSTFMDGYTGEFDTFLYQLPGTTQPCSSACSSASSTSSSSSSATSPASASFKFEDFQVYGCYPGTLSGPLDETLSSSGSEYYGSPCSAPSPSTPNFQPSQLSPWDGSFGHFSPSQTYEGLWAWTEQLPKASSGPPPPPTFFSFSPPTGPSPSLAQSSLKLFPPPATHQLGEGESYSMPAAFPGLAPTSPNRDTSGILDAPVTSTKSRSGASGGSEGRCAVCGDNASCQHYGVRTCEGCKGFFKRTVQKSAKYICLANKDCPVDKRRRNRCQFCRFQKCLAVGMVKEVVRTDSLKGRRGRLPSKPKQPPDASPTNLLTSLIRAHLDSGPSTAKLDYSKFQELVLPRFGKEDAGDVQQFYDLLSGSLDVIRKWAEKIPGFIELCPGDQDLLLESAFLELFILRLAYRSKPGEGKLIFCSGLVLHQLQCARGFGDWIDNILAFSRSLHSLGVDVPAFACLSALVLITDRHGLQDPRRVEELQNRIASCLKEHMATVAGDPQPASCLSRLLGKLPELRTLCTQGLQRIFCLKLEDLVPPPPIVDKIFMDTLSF

NEM cells [5] = assay: Annexin V staining, NEM cells; format: cell-based, human; conditions: 25 μM DIM-C-pPhOH, 10 μM DIM-C-pPhOH-3-Cl-5-OCH3, vs DMSO control, FIG. 4C
ESECT-7 cells [6] = assay: α-SMA immunofluorescence, ESECT-7; format: cell-based, human; conditions: vs control, FIG. 5A
Procedure: Immunofluorescence: ESECT-7 and ESECT-40 cells were seeded in Nunc chambered cover-glass followed by various drug treatments. The cells were fixed with 4% paraformaldehyde in PBS for 20 minutes at 37° C. Cells were then blocked and incubated overnight with primary α-SMA antibody in the buffer (5% bovine serum albumin in PBS) at 4° C., followed by incubation with Alexa Fluor conjugated secondary antibody at a dilution of 1:250 for 2 hours at room temperature. Finally, cells were observed using a Zeiss confocal fluorescence microscope.

NEM cells [7] = assay: Cell growth, normal endometrial NEM cells; format: cell-based, human; conditions: 24 hr; 15-25 μM DIM-C-pPhOH, 5-10 μM DIM-C-pPhOH-3-Cl-5-OCH3; vs DMSO control; FIG. 4A
Procedure: (§3) Primary human endometriotic stromal cells from endometriosis patients: Ovarian endometrioma were isolated from endometriosis patients in the proliferative phase following the IRB-approved protocol. Isolated ectopic lesions were digested with collagenase type 3 (300 μg/ml) and DNaseI (40 μg/ml) for 90 min at 37° C., and then tissues were filtered through 150, 100, and 40 μm sieves to isolate endometrial stromal cells. The collected endometrial stromal cells were cultured in DMEM/F12 with 10% FBS plus 1× antibiotic/antimycotic solution and then validated by flow cytometry with a CD90 antibody (a mesenchymal marker). Henceforth, we refer to the stromal cells as ectopic endometrium isolated ovarian endometrioma (ESECT). As the control, primary normal endometrial stromal cells isolated from the biopsy of the eutopic endometrium of normal women (NEM) in the proliferative phase. All cells were incubated at 37° C. in CO2 incubator in an atmosphere of humidified 5% CO2 and 95% air.
(§4) Cell proliferation assay: Patient-derived endometriotic cells ESECT-7 and ESECT-40 were seeded into a 96-well plate, and the cells were then treated for 24 hr with either DMSO or different concentrations of DIM-C-pPhOH and DIM-C-pPhOH-3-Cl-5-OCH3. […] Dimethyl sulfoxide (DMSO) was added and incubated at […] for 10 min, and absorbance was measured at 570 nm.

Ishikawa cells = assay: Expression of fibrosis markers in Ishikawa cells; format: cell-based; conditions: 24 hours, FIG. 6D
NEM cells [8] = assay: Western blotting of growth promoting and proapoptotic gene products, NEM cells; format: cell-based, human
ESECT-40 cells [9] = assay: Cell proliferation assay (MTT), ESECT-40; format: cell-based, human; conditions: 24 hr; 5-10 μM DIM-C-pPhOH-3-Cl-5-OCH3, 15-25 μM DIM-C-pPhOH; FIG. 2C
Procedure: as §3, §4

IHEECs = assay: Expression of fibrosis markers in IHEECs; format: cell-based, human; conditions: 24 hours, vs control, FIG. 6B
ESECT-40 cells [10] = assay: Annexin V staining, ESECT-40; format: cell-based, human; conditions: 10 μM DIM-C-pPhOH-3-Cl-5-OCH3, 25 μM DIM-C-pPhOH, FIG. 3B
Procedure: as §2

ESECT-7 cells [11] = assay: Cell proliferation assay (MTT), ESECT-7; format: cell-based, human; conditions: 24 hr; 5-10 μM DIM-C-pPhOH-3-Cl-5-OCH3, 15-25 μM DIM-C-pPhOH; FIG. 2C
Procedure: as §3, §4

NESC and EESC cells = conditions: Zeng et al. 2018; cited from earlier work

T1 sequence (P22736 whole entry, species assumed): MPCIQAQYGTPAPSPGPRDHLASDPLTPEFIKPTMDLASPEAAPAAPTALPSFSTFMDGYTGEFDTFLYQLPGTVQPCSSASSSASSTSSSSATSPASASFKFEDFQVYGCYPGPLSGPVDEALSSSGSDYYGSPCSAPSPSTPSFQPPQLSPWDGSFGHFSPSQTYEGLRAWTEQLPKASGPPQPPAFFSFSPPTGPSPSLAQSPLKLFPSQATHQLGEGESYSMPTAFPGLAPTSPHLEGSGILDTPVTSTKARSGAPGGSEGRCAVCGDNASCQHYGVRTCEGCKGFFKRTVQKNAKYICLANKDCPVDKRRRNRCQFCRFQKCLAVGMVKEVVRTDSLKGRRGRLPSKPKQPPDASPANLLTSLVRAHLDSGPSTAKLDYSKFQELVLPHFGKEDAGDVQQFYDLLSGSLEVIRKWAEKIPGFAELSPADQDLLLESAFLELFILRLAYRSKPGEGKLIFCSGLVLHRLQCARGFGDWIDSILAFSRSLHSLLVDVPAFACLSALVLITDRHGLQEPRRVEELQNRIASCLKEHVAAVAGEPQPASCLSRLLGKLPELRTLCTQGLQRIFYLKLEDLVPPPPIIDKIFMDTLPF

Oc1c(Br)cc(C(c2c[nH]c3ccccc23)c2c[nH]c3ccccc23)cc1Br [4-OH-3,5-Br2]
intrinsic transcriptional activity of NR4A1 (NR4A1 [1]): inhibited the intrinsic transcriptional activity | intrinsic transcriptional activity of GAL4-NR4A1 (GAL4-NR4A1): inhibited the intrinsic transcriptional activity

Oc1ccc(C(c2c[nH]c3ccccc23)c2c[nH]c3ccccc23)cc1Cl [4-OH-3-Cl, 1,1-bis(3′-indolyl)-1-(3-chloro-4-hydroxyphenyl)methane]
intrinsic transcriptional activity of NR4A1 (NR4A1 [1]): inhibited the intrinsic transcriptional activity | intrinsic transcriptional activity of GAL4-NR4A1 (GAL4-NR4A1): inhibited the intrinsic transcriptional activity

Oc1ccc(C(c2c[nH]c3ccccc23)c2c[nH]c3ccccc23)cc1 [DIM-C-pPhOH, 1,1-bis(3′-indolyl)-1-(p-hydroxyphenyl)methane]
mRNA levels of fibrosis markers (FN, Col1A1, CTGF) (ESECT-7 cells [2]): decreased mRNA levels | Annexin V staining (apoptosis) (ESECT-7 cells [3]): induced apoptosis | NR4A1 agonist activity, induction of genes involved in glucose uptake (NR4A1 [4]): worked as NR4A1 agonists | Annexin V staining (NEM cells [5]): did not enhance | expression of SMA levels (ESECT-7 cells [6]): decreased expression of SMA levels | intrinsic transcriptional activity of NR4A1 (NR4A1 [1]): inhibited the intrinsic transcriptional activity | growth of normal endometrial NEM cells (NEM cells [7]): did not suppress the growth | expression of fibrosis markers (α-SMA, COL1A1, FN, CTGF) (Ishikawa cells): decreased expression of fibrosis markers | levels of the cleaved form of PARP and Bax (NEM cells [8]; 25 μM DIM-C-pPhOH, 10 μM DIM-C-pPhOH-3-Cl-5-OCH3, vs DMSO control, FIG. 4D): did not enhance | cMyc and EGFR expression (NEM cells [8]; 15-25 μM DIM-C-pPhOH, 5-10 μM DIM-C-pPhOH-3-Cl-5-OCH3, vs DMSO control, FIG. 4B): did not decrease | growth of ESECT-40 cells (ESECT-40 cells [9]): inhibited cell growth | intrinsic transcriptional activity of GAL4-NR4A1 (GAL4-NR4A1): inhibited the intrinsic transcriptional activity | expression of fibrosis markers (α-SMA, COL1A1, FN, CTGF) (IHEECs): decreased expression of fibrosis markers | Annexin V staining (apoptosis) (ESECT-40 cells [10]): induced apoptosis | growth of ESECT-7 cells (ESECT-7 cells [11]): inhibited cell growth

CCCCCCCC(=O)c1c(O)cc(O)cc1CC(=O)OCC [cytosporone β]
TGFβ-induced fibrosis (NESC and EESC cells): inhibited TGFβ-induced fibrosis
